In patent US20090176891A1, “DENTAL COMPOSITION AND METHOD OF USE” (priority 2007, published 2009):
Like-named read-outs stand apart in the source and are kept apart here.

Legend:
[1] = test system: common bacteria associated with failed root canal therapy; assay: Drug efficacy: zones of inhibition on agar plates; assay type: cell-based
Method: FIG. 6 is graph showing the antimicrobial efficacy of various dose strengths of CHX on bacterial growth on agar plates. The efficacy of the eluted amounts of CHX was tested to evaluate anti-microbial activity at various dose strengths compared to a positive control (Ampicillin). This pilot study was done to obtain a range of CHX elution amounts by weight required to kill common bacteria associated with failed root canal therapy.

[2] = species not given; cited from earlier work
[3] = test system: RAT; conditions: cited from earlier work

Compound CC1(C)S[C@@H]2[C@H](NC(=O)[C@H](N)c3ccccc3)C(=O)N2[C@H]1C(=O)O [Ampicillin] has a zone of inhibition at 10000 µg/disc ([1]; 10 mg, positive control) of 14.5 mm.

In the case of [H]/N=C(\N/C(=N/[H])NCCCCCCNC(=N)NC(=N)Nc1ccc(Cl)cc1)Nc1ccc(Cl)cc1 [CHX, chlorohexidine], the LD50 [2] is given as 2000 mg/kg, the antimicrobial effect ([1]; 4 μg, compared with water (negative control)) is given as “some antimicrobial effect can be seen” and the “zones of inhibition compared with Ampicillin” value ([1]; 31 to 250 μg) is given as “equal to or better than that of Ampicillin”. For the same compound, the zone of inhibition at 0.5 µg/disc ([1]; dose 0.5 μg) was 0 mm, the zone of inhibition at 1 µg/disc ([1]; dose 1 μg) was 0 mm and the zone of inhibition at 2 µg/disc ([1]; dose 2 μg) was 0 mm. It also gave a zone of inhibition at 4 µg/disc ([1]; dose 4 μg) of 7 mm, a zone of inhibition at 7.8 µg/disc ([1]; dose 7.8 μg) of 9 mm and a zone of inhibition at 15.6 µg/disc ([1]; dose 15.6 μg) of 12.3 mm. For the same compound, the zone of inhibition at 31.25 µg/disc ([1]; dose 31.25 μg) was 14.3 mm, the zone of inhibition at 62.5 µg/disc ([1]; dose 62.5 μg) was 16.7 mm and the zone of inhibition at 125 µg/disc ([1]; dose 125 μg) was 16.3 mm. It also gave a zone of inhibition at 250 µg/disc ([1]; dose 250 μg) of 17.3 mm.

In the case of CCOC(=O)c1ccc(N(C)C)cc1 [I3, Ethyl-4-N,N-dimethylaminobenzoate], the LD50 ([3]; RAT) is given as 2000 mg/kg.

For C=C(C)C(=O)OCCN(C)C [I4, N,N-Dimethylaminoethyl Methacrylate], the LD50 ([3]; RAT ORAL) is given as 1751 mg/kg.

For [Cl-].c1ccc([I+]c2ccccc2)cc1 [I5, Diphenyliodonium chloride], the LD50 [2] is listed as 60 mg/kg.

In the case of C=C(C)C(=O)OCC(O)COc1ccc(C(C)(C)c2ccc(OCC(O)COC(=O)C(=C)C)cc2)cc1 (centres unmarked) [M3, 2,2-bis[p-(2-hydroxy-3-methacryloxypropoxy)phenyl]propane], the LD50 ([3]; RAT) is given as > 5000 mg/kg.

In the case of C=C(C)C(=O)OCCOCCOCCOC(=O)C(=C)C [M4, triethylene glycol dimethacrylate], the LD50 [2] is given as 10750 mg/kg.

For C=C(C)C(=O)OCCO [M5, hydroxyl ethyl methacrylate], the LD50 [2] is listed as 4680 mg/kg.
